The source of these data is ChEMBL document CHEMBL5136972, “Targeting SARS-CoV-2 Proteases and Polymerase for COVID-19 Treatment: State of the Art and Future Opportunities” (J Med Chem, 2022).

Series [1] in a line: Cytotoxicity against African green monkey Vero E6 cells incubated for 3 hrs by CCK-8 assay. The format is toxicity, cell-based, Vero C1008. The conditions noted are these: chlorocebus sabaeus.
The subject of series [2] is SARS-CoV-2. Description: Antiviral activity against SARS CoV-2 infected in African green monkey Vero cells assessed as inhibition of plaque formation by viral plaque assay. The note with it: Severe acute respiratory syndrome coronavirus 2, Vero. The format is functional, organism-based.
Series [3] can be described thus: Cytotoxicity against African green monkey Vero E6 cells by CCK-8 assay. The format is toxicity, cell-based, Vero C1008. The conditions noted are these: chlorocebus sabaeus.
The nature of series [4]: Clearance in CD-1 mouse at 5 to 20 mg/kg, ip measured after up to 24 hrs by LC-MS/MS analysis. The format is ADME, organism-based. The note with it: in vivo, dose 5-20 mg/kg.
For series [5], the system named is SARS-CoV. Nature of the series: Antiviral activity against SARS CoV infected in HAE cells measured after 48 hrs by CellTiter-Glo assay. The format is functional, organism-based. The note with it: Severe acute respiratory syndrome-related coronavirus. On the technique in general: In ATP-based viability assays light output follows the ATP content of the culture.

Series [6] concerns Middle East respiratory syndrome-related coronavirus. Description: Antiviral activity against […] CoV infected in HAE cells measured after 48 hrs by CellTiter-Glo assay. The format is functional, organism-based.
Series [7] deals with SARS-CoV-2. Nature of the series: Antiviral activity against SARS CoV-2 infected in African green monkey Vero E6 cells assessed as inhibition of virus-induced cytopathic effect measured after 72 hrs by Reed-Muench method. The format is functional, organism-based. The conditions noted are these: Severe acute respiratory syndrome coronavirus 2, Vero C1008, 72 h. Background: Protection from cytopathic effect is a common read-out in antiviral testing.

Series [8] relates to SARS-CoV-2. Nature of the series: Antiviral activity against SARS CoV-2 infected in human Huh-7 cells measured up to 72 hrs by plaque assay. The format is functional, organism-based. The conditions noted are these: Severe acute respiratory syndrome coronavirus 2, Huh-7, 72 h.
The nature of series [9]: in vivo. The note with it: C57BL/6J (Ces1c knockout), mouse, sc, 25 mg/kg.
The nature of series [10]: in vivo. The conditions noted are these: C57BL/6J (wild type), mouse, sc, 25 mg/kg.
In series [11] the target is T1, Replicase polyprotein 1ab (Severe acute respiratory syndrome coronavirus 2, UniProt P0DTD1). Nature of the series: Inhibition of SARS CoV-2 PL protease.
In series [12] the target is T1, Replicase polyprotein 1ab. Description: Inhibition of N-terminal recombinant SARS CoV 2 3CL protease expressed in Escherichia coli BL21-DE3 cells using MCA-AVLQSGFR-Lys(Dnp)-Lys-NH2 as substrate by FRET assay.
A short description of series [13]: Half life in CD-1 mouse at 5 mg/kg, iv measured after up to 24 hrs by LC-MS/MS analysis. The format is ADME, organism-based. The note with it: in vivo.
Series [14] can be described thus: Clearance in CD-1 mouse at 5 mg/kg, iv measured after up to 24 hrs by LC-MS/MS analysis. The format is ADME, organism-based. The conditions noted are these: in vivo.
Series [15] can be described thus: Cmax in CD-1 mouse at 5 mg/kg, iv measured after up to 24 hrs by LC-MS/MS analysis. The format is ADME, organism-based. Also on record: dose 5 mg/kg, time < 24 hrs, route iv. The note with it: in vivo.
Series [16] in a line: Bioavailability in CD-1 mouse at 5 mg/kg, iv measured after up to 24 hrs by LC-MS/MS analysis. The format is ADME, organism-based. The note with it: in vivo.
Series [17] can be described thus: Half life in Sprague-Dawley rat at 10 mg/kg, iv measured after up to 24 hrs by LC-MS/MS analysis. The conditions noted are these: in vivo. The format is ADME, organism-based.
Series [18] in a line: Half life in Beagle dog at 5 mg/kg, iv measured after up to 24 hrs by LC-MS/MS analysis. The format is ADME, organism-based, Canis lupus familiaris. The conditions noted are these: in vivo.
Series [19] can be described thus: Clearance in Sprague-Dawley rat at 10 mg/kg, iv measured after up to 24 hrs by LC-MS/MS analysis. The format is ADME, organism-based. The conditions noted are these: in vivo.
The nature of series [20]: Clearance in Beagle dog at 5 mg/kg, iv measured after up to 24 hrs by LC-MS/MS analysis. The conditions noted are these: in vivo. The format is ADME, organism-based, Canis lupus familiaris.
Series [21] is described as follows: AUClast in Sprague-Dawley rat at 10 mg/kg, iv measured after up to 24 hrs by LC-MS/MS analysis. The format is ADME, organism-based. Details: time < 24 hrs, dose 10 mg/kg, route iv. The conditions noted are these: in vivo.
The nature of series [22]: AUClast in Beagle dog at 5 mg/kg, iv measured after up to 24 hrs by LC-MS/MS analysis. Details: time < 24 hrs, dose 5 mg/kg, route iv. The format is ADME, organism-based, Canis lupus familiaris. The note with it: in vivo.
The subject of series [23] is SARS-CoV-2. Description: Antiviral activity against SARS CoV-2 clinical isolate 2019-nCoV/USA-WA1/2020 infected in African green monkey Vero E6 cells incubated for 48 hrs by CellTiter-Glo assay. The format is functional, organism-based. The note with it: Severe acute respiratory syndrome coronavirus 2, 2019-nCoV/USA-WA1/2020, Vero C1008, 48 h.
Series [24] in a line: Cytotoxicity against African green monkey Vero E6 cells infected with SARS CoV-2 clinical isolate 2019-nCoV/USA-WA1/2020 incubated for 48 hrs by CellTiter-Glo assay. The format is toxicity, cell-based, Vero C1008. The conditions noted are these: chlorocebus sabaeus.
For series [25], the system named is SARS-CoV-2. Nature of the series: Antiviral activity against SARS CoV-2 clinical isolate 2019-nCoV/USA-WA1/2020 infected in human Calu-3 cells measured after 72 hrs by plaque assay. The format is functional, organism-based. The conditions noted are these: Severe acute respiratory syndrome coronavirus 2, 2019-nCoV/USA-WA1/2020, Calu-3, 72 h.
Series [26] is described as follows: Oral bioavailability in CD1 mouse at 50 mg/kg administered as single dose by LC-MS/MS analysis. The format is ADME, organism-based. The note with it: in vivo.
The nature of series [27]: Oral bioavailability in CD1 mouse at 150 mg/kg administered as single dose by LC-MS/MS analysis. The format is ADME, organism-based. The conditions noted are these: in vivo.
The nature of series [28]: Oral bioavailability in CD1 mouse at 500 mg/kg administered as single dose by LC-MS/MS analysis. The format is ADME, organism-based. The conditions noted are these: in vivo.
Series [29] can be described thus: Half life in CD1 mouse at 50 mg/kg, po administered as single dose by LC-MS/MS analysis. The format is ADME, organism-based. The note with it: in vivo.
A short description of series [30]: Half life in CD1 mouse at 150 mg/kg, po administered as single dose by LC-MS/MS analysis. The format is ADME, organism-based. The note with it: in vivo.
Series [31] is described as follows: Half life in CD1 mouse at 500 mg/kg, po administered as single dose by LC-MS/MS analysis. The conditions noted are these: in vivo. The format is ADME, organism-based.
Series [32] can be described thus: Drug distribution in CD1 mouse liver at 150 to 500 mg/kg, po measured after 8 hrs by LC-MS/MS analysis. The format is ADME, organism-based. The note with it: in vivo, dose 150-500 mg/kg.
Series [33] concerns SARS-CoV. Nature of the series: Antiviral activity against […] infected in HAE cells incubated for 48 hrs by qRT-PCR analysis. The format is functional, organism-based. Background: Quantitative PCR measures a nucleic acid by following its amplification.
For series [34], the system named is Middle East respiratory syndrome-related coronavirus. Nature of the series: Antiviral activity against […] infected in HAE cells incubated for 48 hrs by qRT-PCR analysis. The format is functional, organism-based.

Broadly, the CC50 is the concentration giving 50% cytotoxicity. `O=C(O)[C@H]1O[C@@H](Oc2cc3oc(-c4ccccc4)cc(=O)c3c(O)c2O)[C@H](O)[C@@H](O)[C@@H]1O` [BAICALIN] displayed a CC50 at 3 h in [1] of over 200000 nM.
Broadly, the EC50 is the concentration giving half of the maximal effect. By CL/F is commonly meant the apparent clearance, not corrected for the fraction that reaches the circulation. For `O=C[C@H](C[C@@H]1CCNC1=O)NC(=O)[C@H](Cc1cccc(F)c1)NC(=O)c1cc2ccccc2[nH]1`, the concentration giving a half-maximal response (EC50) in [2] is 720 nM. Further, in series [3], the CC50 is over 100000 nM. The CL/F in series [4] amounted to 21 mL/min/kg.
The term half-life denotes the time in which the quantity being followed falls by half. In the case of `CCC(CC)COC(=O)[C@H](C)N[P@](=O)(OC[C@H]1O[C@@](C#N)(c2ccc3c(N)ncnn23)[C@H](O)[C@@H]1O)Oc1ccccc1`, the EC50 in [5] is 69 nM; in series [6], 74 nM; in [7] it was 651 nM; in [8] it was 3 nM. In addition, the values for the half-life at 144 h in series [9] and in series [10] were 0.417 h and under 5 min, respectively.
What is called IC50 is the concentration that inhibits the measured activity by half. Take `CC(=O)N[C@@H](CCc1ccc(O)cc1)C(=O)N[C@@H](CN)C(=O)NCC(=O)NC/C=C/C(=O)O`: the half-maximal inhibitory concentration (IC50) in [11] is 10000 nM.
In the case of `CC(=O)N[C@@H](CCc1nc2ccccc2s1)C(=O)N[C@@H](CN)C(=O)NCC(=O)NC/C=C/C(=O)O`, half-maximal inhibition in [11] (IC50) was put at 10000 nM.
One may read the clearance as the rate of elimination divided by the concentration. As usually defined, the Cmax is the maximum level reached in the sampled fluid or tissue. Usually bioavailability stands for dose-corrected exposure relative to a reference, in per cent. One may read the AUC(0-t) as exposure summed from dosing to a finite time, without extrapolation to infinity. Turning to `O=C[C@H](C[C@@H]1CCNC1=O)NC(=O)[C@H](CC1CC1)NC(=O)c1cc2ccccc2[nH]1`, in series [2], the concentration giving a half-maximal response (EC50) came out at 520 nM. Also, the IC50 in series [12] is 53 nM. The same molecule registered a CC50 in series [3] of over 100000 nM. Further, the half-life was 4.4 h in series [13], 7.6 h in series [17] and 5.5 h in series [18]. Besides, the figures for the clearance in [14], in series [19] and in series [20] were 17 mL/min/kg, 4.01 mL/min/kg and 5.8 mL/min/kg, respectively. The same molecule displayed a Cmax in series [15] of over 2360 ng/mL. This molecule also showed a bioavailability in series [16] of over 85%. For the same molecule, the AUC(0-t) at 24 h worked out at 41500 ng·h/mL in series [21] and 14900 ng·h/mL in series [22].
Turning to `O=c1nc(NO)ccn1[C@@H]1O[C@H](CO)[C@@H](O)[C@H]1O` [N-HYDROXYCYTIDINE], the concentration giving a half-maximal response (EC50) in [23] was 300 nM; in series [25] it was 80 nM; in series [33], 140 nM; in [34], 24 nM. In addition, the 50% cytotoxic concentration (CC50) at 48 h in series [24] was over 10000 nM. Besides, the bioavailability in series [26] is 56%; in series [27], 43%; in [28], 36%. For the same molecule, the half-life is 5.2 h in [29], 3.2 h in series [30] and 2.7 h in [31]. The Drug uptake in [32] is 10 nmol/g.
